Data on 2 molecules can be found in publication PMC10638401, “Mannich-type modifications of (−)-cannabidiol and (−)-cannabigerol leading to new, bioactive derivatives” (Scientific Reports, 2023).

Series [1] relates to SZ95 sebocytes. Nature of the series: Viability MTT-assay on sebocytes, 48 h. Format: cell-based, human. The note with it: 30 μM. As for the experimental part: (§1) Human immortalized SZ95 sebocytes, originated from human facial sebaceous glands[50] were provided by prof. Christos C. Zouboulis, and were cultured in Sebomed® Basal Medium (Cat. No. F8205; Sigma-Aldrich) supplemented with 10% FBS (Gibco-Thermo Fisher Scientific), 1 mM CaCl2 (Cat. No. C7902; Sigma-Aldrich), 5 ng/ml human epidermal growth factor (Cat. No. E9644; Sigma-Aldrich), and MycoZap™ Plus-CL (1:500; Lonza). The medium was changed every other day, and cells were subcultured at 60–70% confluence.
The viability of HaCaT keratinocytes and SZ95 sebocytes was determined by MTT-assay[58] (Cat. No. M5655; Sigma-Aldrich) measuring the conversion of the tetrazolium salt to formazan by mitochondrial dehydrogenases. Cells were plated in 96-well plates (20,000 cells/well), and were treated as indicated. Cells were then incubated with 0.5 mg/ml MTT reagent for 3 h, and concentration of formazan crystals (as an indicator of number of viable cells) was determined colorimetrically at 565 nm by using FlexStation 3 multi-mode microplate reader (Molecular Devices). Results were expressed as percentage of vehicle-treated control regarded as 100%.
(In general: Tetrazolium assays rely on reduction of a dye to a coloured formazan, in cell work by metabolically active cells.)

The nature of a further series: in vitro. The note with it: African green monkey.
The next series has as its system MCF7 cells. As to the kind of experiment: Antiproliferative MTT assay, 72 h. Format: cell-based, human. An outline of the steps:
(§2)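 Cells seeded at 5000/well, grown overnight, then treated with 10 or 30 μM compound for 72 h. MTT added for 4 h, formazan dissolved in DMSO and read at 545 nm. Values are % proliferation inhibition versus untreated controls (0%), two experiments with five wells each.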

Another series concerns A2780 cells. As to the kind of experiment: Antiproliferative MTT assay, 72 h. Format: cell-based, human. An outline of the steps: as §2
For another series, the system named is MDA-MB-231 cells. As to the kind of experiment: Antiproliferative MTT assay, 72 h. Format: cell-based, human. An outline of the steps: as §2
The next series concerns SiHa cells. As to the kind of experiment: Antiproliferative MTT assay, 72 h. Format: cell-based, human. An outline of the steps: as §2
Series [2] concerns SZ95 sebocytes. As to the kind of experiment: Nile Red-assay, arachidonic acid-induced lipogenesis. The note with it: 50 μM arachidonic acid, 48 h. Format: cell-based, human. How it is done: as §1
For quantitative measurement of sebaceous (neutral) lipid content, SZ95 sebocytes (20,000 cells/well) were cultured in 96-well “black well/clear bottom” plates (Cat. No. 655090; Greiner Bio-One, Frickenhausen, Germany), and were treated with compounds in the presence or absence of arachidonic acid (AA; Cat. No. 90010; Cayman Chemical Company, Ann Arbor, MI, USA) or its vehicle (absolute ethanol) as indicated. Subsequently, supernatants were discarded, cells were washed twice with phosphate-buffered saline (PBS; 115 mM NaCl, 20 mM Na2HPO4, pH 7.4; all from Sigma-Aldrich), and 100 µl of a 1 µg/ml Nile Red (Cat. No. N3013; Sigma-Aldrich) solution in PBS was added to each well. The plates were then incubated at 37 °C for 30 min, and fluorescence was measured on FlexStation 3 multimode microplate reader (Molecular Devices, San Francisco, CA, USA). Results, measured in relative fluorescence units, are expressed as percentage of the vehicle (absolute ethanol; Cat. No. 20821.296; VWR International)-treated control regarded as 100%, using 485 nm excitation and 565 nm emission wavelengths.

For the next series, the system named is Bacillus subtilis. As to the kind of experiment: MIC, broth micro dilution.
In series [3] the test system is Enterococcus faecalis 15 376 VanA. As to the kind of experiment: MIC, broth micro dilution. To be noted: Enterococcus faecalis, 15376VANA.
The subject of series [4] is SZ95 sebocytes. As to the kind of experiment: Nile Red-assay, spontaneous sebaceous lipogenesis. Format: cell-based, human. The note with it: 48 h.
The test system of series [5] is Staphylococcus epidermidis biofilm forming. As to the kind of experiment: MIC, broth micro dilution. The note with it: Staphylococcus epidermidis.
Series [6] deals with Enterococcus faecalis 29 212. As to the kind of experiment: MIC, broth micro dilution. The note with it: Enterococcus faecalis, 29212.
Method: (§3) According to CLSI guideline the Minimal Inhibitory Concentrations (MICs) of the prepared compounds were determined with the broth micro dilution method. After an overnight growth on 5% bovine blood agar plates at 35 °C bacterial strains were suspended in physiological saline in order to reach the density of 0.5 McFarland for inoculation. Stock solutions containing different concentrations of the substances were prepared in DMSO and H2O (1:1). These were twofold serially diluted from 256 to 0.5 mg/l in Mueller–Hinton broth, and 100 ml of each dilution was inoculated with 10 ml of each bacterial suspension.
For series [7], the system named is Enterococcus faecalis 51299 VanB. Nature of the series: MIC, broth micro dilution. To be noted: Enterococcus faecalis, 51299VANB.
Method: as §3
In series [8] the test system is Staphylococcus epidermidis mecA. Nature of the series: MIC, broth micro dilution. The note with it: Staphylococcus epidermidis.
Method: as §3

≈ marks a conversion by molar mass, not a printed value. A value given as a limit tells only on which side of the number the result lay.

Method for Bacillus subtilis: as §3

With `C=C(C)[C@@H]1CCC(C)=C[C@H]1c1c(O)cc(CCCCC)cc1O` [Compound 1, (−)-Cannabidiol], the “viability (MTT signal intensity)” value in the series with SZ95 sebocytes [1] was “cytotoxic effects”. In addition, the CC50 in the series “in vitro” is 12.1 ± 1.2 µM. For the same molecule, the inhibition at 30 µM was approximately 90% in the series on MCF7 cells (Homo sapiens, MCF7, 30 μM, read-out: inhibition of the proliferation); approximately 90% with A2780 cells (Homo sapiens, A2780, 30 μM, read-out: inhibition of the proliferation); approximately 90% in the series on MDA-MB-231 cells (Homo sapiens, MDA-MB-231, 30 μM, read-out: inhibition of the proliferation); approximately 90% with SiHa cells (Homo sapiens, 30 μM, read-out: inhibition of the proliferation). Besides, the “inhibition of the proliferation (in words)” value is “modest” with MCF7 cells (MCF7, 10 μM); “modest” in the series with A2780 cells (A2780, 10 μM); “negligible” in the series with MDA-MB-231 cells (MDA-MB-231, 10 μM); “negligible” with SiHa cells (10 μM). The “effect on the lipogenic effect of arachidonic acid (AA)” value in the series with SZ95 sebocytes [2] is on record as “completely prevent the lipogenic effect”. Also, the MIC against Bacillus subtilis is 4 µg/mL (≈ 12.7 µM); in [3] it was 4 µg/mL (≈ 12.7 µM); in [5] it was 8 µg/mL (≈ 25.4 µM); in series [6], 2 µg/mL (≈ 6.36 µM); in series [7], 4 µg/mL (≈ 12.7 µM); in [8], 8 µg/mL (≈ 25.4 µM). The “spontaneous, homeostatic sebaceous lipogenesis (lipid synthesis)” value in the series with SZ95 sebocytes [4] (30 μM) is “significant decrease in the lipid synthesis”. In addition, in the series with SZ95 sebocytes [4] (≤ 10 μM), the “spontaneous, homeostatic sebaceous lipogenesis” value is “no effect”.
Regarding `C=C(C)[C@@H]1CCC(C)=C[C@H]1c1c(O)cc(CCCCC)c(COCC)c1O` [Compound 9], the “viability (MTT signal intensity)” value in the series with SZ95 sebocytes [1] is on record as “no such effect on the viability”. The CC50 in the series “in vitro” was more than 100 µM. In addition, the “antiproliferative activity (in words)” value in the series with MCF7 cells (MCF7, 10 and 30 μM) is “None of the other tested CBD analogs (9, 11, and 12) exhibited substantial antiproliferative activity”; in the series on A2780 cells (A2780, 10 and 30 μM), “None of the other tested CBD analogs (9, 11, and 12) exhibited substantial antiproliferative activity”; in the series with MDA-MB-231 cells (MDA-MB-231, 10 and 30 μM), “None of the other tested CBD analogs (9, 11, and 12) exhibited substantial antiproliferative activity”; in the series with SiHa cells (10 and 30 μM) it was “None of the other tested CBD analogs (9, 11, and 12) exhibited substantial antiproliferative activity”. The “effect on the lipogenic effect of arachidonic acid (AA)” value with SZ95 sebocytes [2] is reported as “mimic this lipostatic effect”. The MIC in the series on Bacillus subtilis is more than 256 µg/mL; in series [3] it was 128 µg/mL (≈ 344 µM); in series [5] it was more than 256 µg/mL; in [6], 8 µg/mL (≈ 21.5 µM); in [7] it was 8 µg/mL (≈ 21.5 µM); in series [8], more than 256 µg/mL. For the same molecule, in the series on SZ95 sebocytes [4] (applied alone), the “spontaneous, homeostatic sebaceous lipogenesis” value is given as “rather promote spontaneous, homeostatic sebaceous lipogenesis”.
